Source: ChEMBL document CHEMBL4431314, “Computer-aided drug design guided by hydrogen/deuterium exchange mass spectrometry: A powerful combination for the development of potent and selective inhibitors of Group VIA calcium-independent phospholipase A2” (Bioorg Med Chem, 2016)

Experiments:
[1] = target: T1, 85/88 kDa calcium-independent phospholipase A2 (Homo sapiens) (UniProt O60733); test: Inhibition of N-terminal 6xHis-tag human group VIA calcium-independent PLA2 expressed in fall armyworm sf9 cells using PAPC/arachidonyl-1-14C PAPC as substrate by mixed micelle modified Dole assay
T1 sequence (whole entry): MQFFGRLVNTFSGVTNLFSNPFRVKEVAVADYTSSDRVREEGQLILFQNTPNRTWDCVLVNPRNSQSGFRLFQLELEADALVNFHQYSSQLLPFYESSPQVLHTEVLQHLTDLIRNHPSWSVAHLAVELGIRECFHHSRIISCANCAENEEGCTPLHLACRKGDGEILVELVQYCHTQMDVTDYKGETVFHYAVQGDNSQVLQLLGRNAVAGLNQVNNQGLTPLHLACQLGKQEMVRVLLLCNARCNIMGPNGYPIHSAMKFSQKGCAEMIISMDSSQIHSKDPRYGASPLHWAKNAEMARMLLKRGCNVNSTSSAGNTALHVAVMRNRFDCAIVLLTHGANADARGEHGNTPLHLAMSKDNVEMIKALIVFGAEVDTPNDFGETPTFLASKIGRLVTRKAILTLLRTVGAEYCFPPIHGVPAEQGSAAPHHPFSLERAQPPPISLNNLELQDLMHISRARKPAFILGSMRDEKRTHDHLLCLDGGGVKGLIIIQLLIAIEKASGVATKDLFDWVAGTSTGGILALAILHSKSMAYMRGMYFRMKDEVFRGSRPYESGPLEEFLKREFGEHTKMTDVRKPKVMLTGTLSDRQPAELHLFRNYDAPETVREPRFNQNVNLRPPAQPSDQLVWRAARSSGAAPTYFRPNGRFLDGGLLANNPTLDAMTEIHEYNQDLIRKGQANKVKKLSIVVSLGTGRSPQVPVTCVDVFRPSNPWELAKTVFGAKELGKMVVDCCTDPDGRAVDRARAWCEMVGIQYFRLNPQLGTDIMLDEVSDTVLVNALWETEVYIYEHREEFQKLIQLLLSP

[2] = target: T1, 85/88 kDa calcium-independent phospholipase A2 (Homo sapiens); test: Inhibition of N-terminal 6xHis-tag human group VIA calcium-independent PLA2 expressed in fall armyworm sf9 cells at 0.091 mol fraction using PAPC/arachidonyl-1-14C PAPC as substrate by mixed micelle modified Dole assay
[3] = target: T2, Cytosolic phospholipase A2 (Homo sapiens) (UniProt P47712); test: Inhibition of C-terminal 6xHis-tagged human group IVA cytosolic PLA2 expressed in fall armyworm sf9 cells at 0.091 mol fraction using PAPC/arachidonyl-1-14C PAPC as substrate by mixed micelle modified Dole assay
T2 sequence (whole entry): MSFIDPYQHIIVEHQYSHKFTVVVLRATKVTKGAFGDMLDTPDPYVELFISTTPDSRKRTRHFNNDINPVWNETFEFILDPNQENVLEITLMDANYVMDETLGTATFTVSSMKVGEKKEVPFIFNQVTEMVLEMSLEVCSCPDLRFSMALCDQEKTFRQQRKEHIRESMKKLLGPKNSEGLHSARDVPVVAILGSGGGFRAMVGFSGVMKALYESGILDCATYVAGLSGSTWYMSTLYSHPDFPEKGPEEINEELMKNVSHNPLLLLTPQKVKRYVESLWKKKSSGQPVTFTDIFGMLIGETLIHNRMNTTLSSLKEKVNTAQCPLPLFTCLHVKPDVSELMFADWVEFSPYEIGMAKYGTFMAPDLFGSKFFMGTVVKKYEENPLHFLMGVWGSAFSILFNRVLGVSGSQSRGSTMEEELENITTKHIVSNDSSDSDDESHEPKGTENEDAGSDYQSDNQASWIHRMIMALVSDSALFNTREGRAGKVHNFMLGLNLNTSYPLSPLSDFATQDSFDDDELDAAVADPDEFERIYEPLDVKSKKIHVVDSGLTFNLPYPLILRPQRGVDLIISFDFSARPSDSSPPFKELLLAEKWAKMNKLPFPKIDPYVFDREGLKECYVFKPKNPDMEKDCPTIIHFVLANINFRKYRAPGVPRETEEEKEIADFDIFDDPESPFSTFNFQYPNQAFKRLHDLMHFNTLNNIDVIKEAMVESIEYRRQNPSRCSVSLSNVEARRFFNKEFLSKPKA

Homo sapiens = species: Homo sapiens; test: Inhibition of His-tagged human group V human secretory PLA2 expressed in Escherichia coli BL21 cells at 0.091 mol fraction using PAPC/arachidonyl-1-14C PAPC as substrate by mixed micelle modified Dole assay
[4] = target: T1, 85/88 kDa calcium-independent phospholipase A2 (Homo sapiens); test: Binding affinity to Group VIA calcium-independent PLA2 (unknown origin) (481 to 493 residues) assessed as change in average deuteration level preincubated for 30 mins followed by D2O addition measured after 10 to 10000 secs by DXMS analysis
[5] = target: T1, 85/88 kDa calcium-independent phospholipase A2 (Homo sapiens); test: Binding affinity to Group VIA calcium-independent PLA2 (unknown origin) (514 to 524 residues) assessed as change in average deuteration level preincubated for 30 mins followed by D2O addition measured after 10 to 10000 secs by DXMS analysis
[6] = target: T1, 85/88 kDa calcium-independent phospholipase A2 (Homo sapiens); test: Binding affinity to Group VIA calcium-independent PLA2 (unknown origin) (542 to 562 residues) assessed as change in average deuteration level preincubated for 30 mins followed by D2O addition measured after 10 to 10000 secs by DXMS analysis
[7] = target: T1, 85/88 kDa calcium-independent phospholipase A2 (Homo sapiens); test: Binding affinity to Group VIA calcium-independent PLA2 (unknown origin) (630 to 655 residues) assessed as change in average deuteration level preincubated for 30 mins followed by D2O addition measured after 10 to 10000 secs by DXMS analysis
[8] = target: T1, 85/88 kDa calcium-independent phospholipase A2 (Homo sapiens); test: Binding affinity to Group VIA calcium-independent PLA2 (unknown origin) (656 to 664 residues) assessed as change in average deuteration level preincubated for 30 mins followed by D2O addition measured after 10 to 10000 secs by DXMS analysis
[9] = target: T1, 85/88 kDa calcium-independent phospholipase A2 (Homo sapiens); test: Binding affinity to Group VIA calcium-independent PLA2 (unknown origin) (718 to 730 residues) assessed as change in average deuteration level preincubated for 30 mins followed by D2O addition measured after 10 to 10000 secs by DXMS analysis
[10] = target: T1, 85/88 kDa calcium-independent phospholipase A2 (Homo sapiens); test: Binding affinity to Group VIA calcium-independent PLA2 (unknown origin) (770 to 778 residues) assessed as change in average deuteration level preincubated for 30 mins followed by D2O addition measured after 10 to 10000 secs by DXMS analysis
[11] = target: T1, 85/88 kDa calcium-independent phospholipase A2 (Homo sapiens); test: Competitive-reversible inhibition of N-terminal 6xHis-tag human group VIA calcium-independent PLA2 expressed in fall armyworm sf9 cells using PAPC/arachidonyl-1-14C PAPC as substrate by mixed micelle modified Dole assay
[12] = target: T2, Cytosolic phospholipase A2 (Homo sapiens); test: Inhibition of C-terminal 6xHis-tagged human group IVA cytosolic PLA2 expressed in fall armyworm sf9 cells using PAPC/arachidonyl-1-14C PAPC as substrate by mixed micelle modified Dole assay

Compound | XI50 (mole fraction) [1] | inhibition [2] [%] | pXI50 [2] | inhibition [3] [%] | inhibition (Homo sapiens) [%] | other results
O=C(CSc1c(Cl)cccc1Cl)C(F)(F)F | 0.0049 | 99 | 2.3 | 91 | 43 | 
O=C(CSc1ccc([N+](=O)[O-])cc1)C(F)(F)F |  | 52 |  | 26 | 17 | 
CCCCSCC(=O)C(F)(F)F | 0.07 | 91 | 1.2 | 46 | 14 | 
CCCCCCS(=O)(=O)CC(O)C(F)(F)F (stereo not given) |  | 15 |  | 5 | 16 | 
CCCCCCOCC(O)C(F)(F)F (stereo not given) |  | 43 |  | 58 | 35 | 
O=C(CSc1ccc(Br)cc1)C(F)(F)F | 0.0071 | 97 | 2.2 | 82 | 35 | 
O=C(CSc1ccc(Cl)cc1)C(F)(F)F | 0.011 | 95 | 2 | 82 | 23 | 
O=C(C[Se]c1ccccc1)C(F)(F)F |  | 46 |  | 18 | 44 | 
CCCCCCCCS(=O)(=O)CC(O)(O)C(F)(F)F |  | 82 |  | 19 | 18 | 
O=C(CSc1cccc(Cl)c1)C(F)(F)F | 0.011 | 98 | 2 | 91 | 46 | 
CCCCCCSCC(=O)C(F)(F)F | 0.00052 | 99 | 3.3 | 77 | 33 | 
Cc1ccc(SCC(=O)C(F)(F)F)cc1 | 0.009 | 95 | 2.1 | 61 | 18 | 
CCCCCCCCSCC(=O)C(F)(F)F |  | 99 | 3.7 | 82 | 68 | Activity [4]: 16%; Activity [5]: 13%; Activity [6]: 18%; Activity [7]: 12%; Activity [8]: 12%; Activity [9]: 13%; Activity [10]: 20%; XI50 (mole fraction) [11]: 0.0002
CCCCCCOCC(=O)C(F)(F)F | 0.006 | 99 | 2.2 | 76 | 35 | 
O=C(CSc1ccccc1)C(F)(F)F |  | 89 |  | 75 | 27 | 
CCCCCCCCCCCCS(=O)(=O)CC(O)(O)C(F)(F)F |  | 52 |  | 34 | 44 | 
COc1ccc(SCC(=O)C(F)(F)F)cc1 | 0.011 | 93 | 2 | 70 | 16 | 
CCCCCCCCCCCCS(=O)(=O)CC(O)C(F)(F)F (stereo not given) |  | 32 |  | 2 | 80 | 
O=C(c1ccc(C2CCCCC2)s1)C(F)(F)F |  | 39 |  | 60 | 66 | 
CCCCCCCCS(=O)(=O)CC(O)C(F)(F)F (stereo not given) |  | 24 |  | 5 | 23 | 
O=C(CSCCc1ccccc1)C(F)(F)F | 0.00059 | 100 | 3.2 | 92 | 61 | 
CCCCCCCCCCSCC(=O)C(F)(F)F | 0.00041 | 99 | 3.4 | 100 | 78 | XI50 (mole fraction) [12]: 0.008
O=C(CSc1ccc(F)cc1)C(F)(F)F |  | 46 |  | 24 | 14 | 
CCCCCCS(=O)(=O)CC(O)(O)C(F)(F)F |  | 71 |  | 14 | 0 | 
CCCCCCCCCCCSCC(=O)C(F)(F)F | 0.0007 | 98 | 3.2 | 98 | 73 | XI50 (mole fraction) [12]: 0.014
CCCCCCCCCCCCSCC(=O)C(F)(F)F | 0.0043 | 97 | 2.4 | 83 | 87 | 
